{"source": "patent US20250074905A1", "about": "“AKT3 MODULATORS” (Georgiamune Inc., priority 2021, published 2025)", "tested_on": "Foxp3 induction in CD4 conventional T cells (iTreg induction)", "experiment": "Foxp3 induction assay", "assay_type": "cell-based, C57/B16 mice", "settings": "T-cell, 72 h; mouse CD4 Tconvs, anti-CD3/anti-CD28, IL2, TGF-β, 3 days of culture, flow cytometry; read-out: IC50 value as measured by the Foxp3 induction assay", "protocol": "Sorted or enriched (Miltenyi magnetic separation) CD4 conventional T cells (Tconvs −CD4+/CD25) from C57/B16 mice were used for the induction of iTregs. A 10 µg/mL plate-bound anti-CD3 antibody (50 ul per well for 96-well plate), […] of soluble anti-CD28 antibody, 100 IU/mL of IL2 and 5 ng/mL of TGF-β in absence or presence of different concentrations of drug (usually titrating from 0.01 uM to 10 uM) were used. As negative control for induction, samples without TGF-β were used.\nAfter 3 days of culture in presence of stimulation, TGF-β and drug, cells were stained with fixable live/dead cell stain (Life Technologies, NY) for gating and exclusion of toxic doses. The mouse Foxp3 buffer kit was used to fix and permeabilize cells according to the manufacturer's instructions (BD Bioscience, San Jose, CA). The anti-CD4 antibody and anti-Foxp3 antibody were used to stain the cells. After staining, cells were acquired using flow cytometer.", "data": [{"smiles": "O=C(Nc1ccc2c(c1)Nc1ccncc1CC2)c1ccc(Nc2ccncc2)cc1", "note": "[Compound 1, N-(10,11-dihydro-5H-benzo[b]pyrido[3,4-f]azepin-7-yl)-4-(pyridin-4-ylamino)benzamide]", "values": [{"measurement": "IC50", "value": "< 1", "unit": "µM"}]}]}
